These results are taken from ChEMBL document CHEMBL1135372, “3-Aryl pyridone derivatives. Potent and selective kappa opioid receptor agonists” (Bioorg Med Chem Lett, 2002).

The target in one experiment is Mu-type opioid receptor (Homo sapiens, UniProt P35372). Kind of experiment: Binding affinity towards mu opioid receptor by the displacement of [125I]Enkephalin. A general note: Loss of bound radioactivity is the signal in a displacement assay; it reports binding, not function.
Experiment [1] has as its target Delta-type opioid receptor (Homo sapiens, UniProt P41143). Kind of experiment: Binding affinity towards delta opioid receptor by the displacement of [125I]deltorphin.
The target of experiment [2] is T1, Kappa-type opioid receptor (Homo sapiens, UniProt P41145). The experiment is described as follows: Binding affinity towards kappa opioid receptor by the displacement of [125I]-(D-Pro10)-Dynorphin A.
T1 sequence (P41145 whole entry): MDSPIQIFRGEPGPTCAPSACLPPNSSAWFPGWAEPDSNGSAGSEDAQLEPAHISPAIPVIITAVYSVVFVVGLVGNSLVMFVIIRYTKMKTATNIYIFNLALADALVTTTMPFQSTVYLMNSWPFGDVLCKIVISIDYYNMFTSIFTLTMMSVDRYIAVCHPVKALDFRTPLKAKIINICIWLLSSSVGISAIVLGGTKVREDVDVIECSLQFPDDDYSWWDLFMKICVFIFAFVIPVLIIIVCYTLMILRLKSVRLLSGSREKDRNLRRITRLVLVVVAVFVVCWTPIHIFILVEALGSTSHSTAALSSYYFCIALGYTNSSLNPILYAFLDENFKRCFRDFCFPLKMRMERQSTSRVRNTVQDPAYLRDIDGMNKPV
Experiment [3] concerns the target T1, Kappa-type opioid receptor. Kind of experiment: Functional activity in HEK293 cells overexpressing the human kappa opioid receptor was determined using a radiolabeled [35S]GTP-gamma-S, assay. The experiment is classed as cell-based. Background: GTPγS resists hydrolysis and so accumulates on activated G proteins.

Some results are limits rather than exact numbers.

Delta-type opioid receptor, sequence (P41143 whole entry): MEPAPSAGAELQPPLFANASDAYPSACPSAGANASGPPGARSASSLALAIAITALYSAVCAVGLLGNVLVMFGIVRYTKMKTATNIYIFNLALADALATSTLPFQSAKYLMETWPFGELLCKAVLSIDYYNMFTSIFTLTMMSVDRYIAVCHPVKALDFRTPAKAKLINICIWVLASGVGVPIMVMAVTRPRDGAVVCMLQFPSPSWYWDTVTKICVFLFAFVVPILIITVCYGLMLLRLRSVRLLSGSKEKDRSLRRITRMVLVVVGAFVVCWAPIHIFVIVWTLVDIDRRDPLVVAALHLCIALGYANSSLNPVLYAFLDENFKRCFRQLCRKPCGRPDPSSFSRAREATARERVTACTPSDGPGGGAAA
Mu-type opioid receptor, sequence (P35372 whole entry): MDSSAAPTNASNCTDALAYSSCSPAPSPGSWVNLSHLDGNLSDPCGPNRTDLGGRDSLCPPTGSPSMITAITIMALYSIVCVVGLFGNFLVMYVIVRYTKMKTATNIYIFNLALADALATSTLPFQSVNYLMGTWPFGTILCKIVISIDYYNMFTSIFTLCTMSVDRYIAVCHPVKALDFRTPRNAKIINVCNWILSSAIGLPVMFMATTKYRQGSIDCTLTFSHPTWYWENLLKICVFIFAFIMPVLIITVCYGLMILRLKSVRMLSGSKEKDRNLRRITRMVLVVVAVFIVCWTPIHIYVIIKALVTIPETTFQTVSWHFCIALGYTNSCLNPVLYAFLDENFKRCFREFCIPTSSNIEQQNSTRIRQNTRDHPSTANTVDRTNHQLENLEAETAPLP

As for `COc1ccc(OC)c(-c2cccn(C(CN3CCCC3)c3ccccc3)c2=O)c1` (centres undefined), the values for the IC50 (on Mu-type opioid receptor; in experiment [1]; in experiment [2]) were over 5 µM, over 10 µM and 0.00344 µM, respectively.

Turning to `O=c1c(-c2ccccc2C(F)(F)F)cccn1C(CN1CCCC1)c1ccccc1` (centres undefined), the IC50 (in general, the point on the concentration scale where inhibition reaches its midpoint) was 1.68 µM at Mu-type opioid receptor, over 10 µM in experiment [1] and 0.0057 µM in experiment [2].

As for `COc1ccc(Cl)cc1-c1cccn(C(CN2CCCC2)c2ccccc2)c1=O` (centres undefined), the values for the IC50 (on Mu-type opioid receptor; in experiment [1]; in experiment [2]) were 1.24 µM, 4.17 µM and 0.0015 µM, respectively.

For the compound `O=c1c(-c2cccc(Cl)c2)cccn1C(CN1CCCC1)c1ccccc1` (centres undefined), the IC50 on Mu-type opioid receptor was 0.308 µM; in experiment [1], over 10 µM; in experiment [2], 0.0024 µM.

In experiment [2], `O=c1c(-c2cc3ccccc3o2)cccn1C(CN1CCCC1)c1ccccc1` (centres undefined) showed an IC50 of 0.271 µM.

In the case of `O=c1c(-c2ccc3ccccc3c2)cccn1C(CN1CCCC1)c1ccccc1` (centres undefined), the values for the IC50 (on Mu-type opioid receptor; in experiment [1]; in experiment [2]) were 2.68 µM, over 10 µM and 0.0319 µM, respectively.

Turning to `COc1ccccc1-c1cccn(C(CN2CCCC2)c2ccccc2)c1=O` (centres undefined), the IC50 is 1.2 µM at Mu-type opioid receptor, over 10 µM in experiment [1] and 0.0195 µM in experiment [2].

As to `O=c1c(-c2ccc(F)cc2)cccn1C(CN1CCCC1)c1ccccc1` (centres undefined), the results for the IC50 (on Mu-type opioid receptor; in experiment [1]; in experiment [2]) were over 10 µM, over 10 µM and 0.0348 µM, respectively.

Consider `O=c1c(-c2ccc(Cl)cc2)cccn1C(CN1CCCC1)c1ccccc1` (centres undefined), for which the figures for the IC50 (on Mu-type opioid receptor; in experiment [1]; in experiment [2]) were 4.84 µM, over 10 µM and 0.0055 µM, respectively.

`O=c1ccc(-c2ccc(Cl)cc2)cn1C(CN1CCCC1)c1ccccc1` (centres undefined): in experiment [2], the IC50 was found to be 0.524 µM.

Regarding `O=c1c(-c2cc(F)ccc2F)cccn1C(CN1CCCC1)c1ccccc1` (centres undefined), the IC50 on Mu-type opioid receptor was over 10 µM; in experiment [1], over 10 µM; in experiment [2], 0.0225 µM.

In experiment [2], `O=c1c(-c2cccs2)cccn1C(CN1CCCC1)c1ccccc1` (centres undefined) yielded an IC50 of 1.18 µM.

`O=c1ccc(-c2ccc(Cl)c(Cl)c2)cn1C(CN1CCCC1)c1ccccc1` (centres undefined) came in with an IC50 in experiment [2] of 1.49 µM.

Consider `O=c1c(-c2ccccc2)cccn1C(CN1CCCC1)c1ccccc1` (centres undefined), for which the IC50 on Mu-type opioid receptor is over 10 µM; in experiment [1], over 10 µM; in experiment [2] it was 0.0563 µM.

With `O=c1c(-c2ccc(C(F)(F)F)cc2)cccn1C(CN1CCCC1)c1ccccc1` (centres undefined), the half-maximal inhibitory concentration (IC50) at Mu-type opioid receptor was 2.72 µM; in experiment [1], over 10 µM; in experiment [2] it was 0.0087 µM. The compound also came in with an ED50 in experiment [3] of 0.0494 µM.

For the compound `O=c1c(-c2cccc([N+](=O)[O-])c2)cccn1C(CN1CCCC1)c1ccccc1` (centres undefined), the IC50 on Mu-type opioid receptor was 3.91 µM; in experiment [1], over 10 µM; in experiment [2] it was 0.0022 µM.

With `Cc1cccc(-c2cccn(C(CN3CCCC3)c3ccccc3)c2=O)c1` (centres undefined), the figures for the IC50 (on Mu-type opioid receptor; in experiment [1]; in experiment [2]) were over 10 µM, 0.639 µM and 0.0793 µM, respectively.

For the compound `O=c1c(-c2ccc(OC(F)(F)F)cc2)cccn1C(CN1CCCC1)c1ccccc1` (centres undefined), the results for the IC50 (on Mu-type opioid receptor; in experiment [1]; in experiment [2]) were 1.1 µM, over 10 µM and 0.0342 µM, respectively.

`O=c1c(-c2ccc(Cl)c(Cl)c2)cccn1C(CN1CCCC1)c1ccccc1` (centres undefined): the IC50 on Mu-type opioid receptor was 2.06 µM; in experiment [1], over 10 µM; in experiment [2] it was 0.0023 µM.

Regarding `N#Cc1cccc(-c2cccn(C(CN3CCCC3)c3ccccc3)c2=O)c1` (centres undefined), the IC50 was 4.28 µM on Mu-type opioid receptor, over 10 µM in experiment [1] and 0.0053 µM in experiment [2].

In the case of `COc1ccc(-c2cccn(C(CN3CCCC3)c3ccccc3)c2=O)cc1` (centres undefined), the results for the IC50 (at Mu-type opioid receptor; in experiment [1]; in experiment [2]) were 1.46 µM, 5.21 µM and 0.0494 µM, respectively.

For the compound `COc1ccc(F)cc1-c1cccn(C(CN2CCCC2)c2ccccc2)c1=O` (centres undefined), the IC50 on Mu-type opioid receptor was 3.46 µM; in experiment [1], 4.35 µM; in experiment [2], 0.0034 µM.
